Experimental findings from publication PMC9721424, “Novel N-methylsulfonyl-indole derivatives: biological activity and COX-2/5-LOX inhibitory effect with improved gastro protective profile and reduced cardio vascular risks” (Journal of Enzyme Inhibition and Medicinal Chemistry, 2022) are described below.

In this experiment the target is T1, 5-LOX enzyme (Homo sapiens, UniProt P09917).
T1 construct: purchased Cayman Chemical K980-100
T1 sequence (P09917 1-674): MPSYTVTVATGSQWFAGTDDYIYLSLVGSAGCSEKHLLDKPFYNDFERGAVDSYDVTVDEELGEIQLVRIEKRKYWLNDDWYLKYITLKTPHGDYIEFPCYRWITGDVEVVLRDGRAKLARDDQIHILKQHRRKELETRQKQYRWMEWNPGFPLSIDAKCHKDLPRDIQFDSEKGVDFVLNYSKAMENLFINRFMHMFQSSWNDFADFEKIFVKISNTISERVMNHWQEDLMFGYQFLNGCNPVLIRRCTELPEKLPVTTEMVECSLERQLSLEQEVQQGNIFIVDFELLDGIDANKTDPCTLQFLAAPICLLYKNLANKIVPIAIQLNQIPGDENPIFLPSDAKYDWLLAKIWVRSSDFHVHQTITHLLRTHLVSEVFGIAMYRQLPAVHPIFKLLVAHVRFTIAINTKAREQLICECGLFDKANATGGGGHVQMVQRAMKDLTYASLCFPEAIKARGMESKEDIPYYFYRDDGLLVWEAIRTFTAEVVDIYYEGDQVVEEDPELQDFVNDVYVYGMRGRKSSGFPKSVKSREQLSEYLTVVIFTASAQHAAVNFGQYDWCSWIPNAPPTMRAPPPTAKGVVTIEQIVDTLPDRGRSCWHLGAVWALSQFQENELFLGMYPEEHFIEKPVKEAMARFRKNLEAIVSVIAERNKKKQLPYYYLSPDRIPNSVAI
Kind of experiment: 5-LOX inhibition, Human Lipoxygenase Inhibitor Screening Assay (EIA) kit. In kind it is biochemical. Here is the method:
The ability of the test compounds to inhibit the 5-LOX enzyme (IC50 value, μM) was detected using the Cayman Human Lipoxygenase Inhibitor Screening Assay (EIA) kit (catalog no. K980-100, Cayman Chemical). The IC50 values of test compounds were measured in µM according to the manufacturer’s instructions and reported method.

Regarding `CC(c1cc2ccccc2s1)N(O)C(N)=O` (centres unmarked) [Zileuton, reference compound], the 5-LOX %inh by setting is: (conc 10 (μM)) 77.1%; (conc 100 (μM)) 92.8%.
